#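 Following 48 hours of exposure in 96-well plates, responses at five concentrations were used to interpolate endpoints linearly. The concentration for 50% growth inhibition is given as GI50.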 Activity calls are given as the source filed them. Rule as the data show it: active = GI50 up to about 1.1 µM and inactive = higher.
# Tests used:
# Test in all cases: DTP human tumour cell line panel, 48 h
# SR = system: SR
# MDA-MB-435 = system: MDA-MB-435
# BT-549 = system: BT-549
# UO-31 = system: UO-31
# MCF7 = system: MCF7
# SNB-19 = system: SNB-19
# LOX IMVI = system: LOX IMVI
# NCI-H460 = system: NCI-H460
# SNB-75 = system: SNB-75
# PC-3 = system: PC-3
# EKVX = system: EKVX
# T47D = system: T47D
# MDA-MB-231 = system: MDA-MB-231
# OVCAR-8 = system: OVCAR-8
# SK-MEL-28 = system: SK-MEL-28
# SK-OV-3 = system: SK-OV-3
# NCI-H23 = system: NCI-H23
# CCRF-CEM = system: CCRF-CEM
# IGROV-1 = system: IGROV-1
# RPMI-8226 = system: RPMI-8226
Structure (SMILES),GI50 (SR),GI50 (MDA-MB-435),GI50 (BT-549),GI50 (UO-31),GI50 (MCF7),GI50 (SNB-19),GI50 (LOX IMVI),GI50 (NCI-H460),GI50 (SNB-75),GI50 (PC-3),GI50 (EKVX),GI50 (T47D),GI50 (MDA-MB-231),GI50 (OVCAR-8),GI50 (SK-MEL-28),GI50 (SK-OV-3),GI50 (NCI-H23),GI50 (CCRF-CEM),GI50 (IGROV-1),GI50 (RPMI-8226)
COc1ccc(/C=c2/[nH]c(=O)/c(=C\c3ccc(OCc4ccccc4)cn3)[nH]c2=O)cc1,20.8 µM (inactive),19.9 µM (inactive),45.3 µM (inactive),0.889 µM (active),46 µM (inactive),34.4 µM (inactive),82.4 µM (inactive),63.8 µM (inactive),19.3 µM (inactive),> 100 µM (inactive),> 100 µM (inactive),> 100 µM (inactive),> 100 µM (inactive),98.2 µM (inactive),> 100 µM (inactive),55 µM (inactive),> 100 µM (inactive),13.9 µM (inactive),–,–
Cc1c(OCc2cccc3ccccc23)ccc2c(O)cc(=S)oc12,28.7 µM (inactive),30.1 µM (inactive),30.9 µM (inactive),33.6 µM (inactive),45.7 µM (inactive),37.6 µM (inactive),22 µM (inactive),31.8 µM (inactive),40.9 µM (inactive),35.2 µM (inactive),44.1 µM (inactive),35.2 µM (inactive),46.5 µM (inactive),60.4 µM (inactive),43.6 µM (inactive),–,25.7 µM (inactive),22.1 µM (inactive),42.6 µM (inactive),–
CCCC(O)c1cn(C(NC(=O)c2ccccc2)P(=O)(OCC)OCC)nn1 (stereo unspecified),> 100 µM (inactive),> 100 µM (inactive),> 100 µM (inactive),> 100 µM (inactive),> 100 µM (inactive),> 100 µM (inactive),> 100 µM (inactive),> 100 µM (inactive),> 100 µM (inactive),> 100 µM (inactive),> 100 µM (inactive),> 100 µM (inactive),> 100 µM (inactive),> 100 µM (inactive),> 100 µM (inactive),–,> 100 µM (inactive),> 100 µM (inactive),> 100 µM (inactive),> 100 µM (inactive)
[O-][Cl+3]([O-])([O-])[O-].[O-][Cl+3]([O-])([O-])[O-].c1ccn2c(N3CCOCC3)[n+]3c4ccccc4[n+]4c(N5CCOCC5)n5ccccc5c4c3c2c1,41.3 µM (inactive),> 100 µM (inactive),> 100 µM (inactive),–,56.1 µM (inactive),63.2 µM (inactive),> 100 µM (inactive),> 100 µM (inactive),28.5 µM (inactive),> 100 µM (inactive),> 100 µM (inactive),> 100 µM (inactive),> 100 µM (inactive),41.2 µM (inactive),> 100 µM (inactive),–,> 100 µM (inactive),> 100 µM (inactive),66.2 µM (inactive),> 100 µM (inactive)
O=C(N/N=C\c1cccs1)c1ccncc1,> 100 µM (inactive),> 100 µM (inactive),> 100 µM (inactive),> 100 µM (inactive),> 100 µM (inactive),> 100 µM (inactive),–,> 100 µM (inactive),> 100 µM (inactive),> 100 µM (inactive),> 100 µM (inactive),> 100 µM (inactive),> 100 µM (inactive),> 100 µM (inactive),> 100 µM (inactive),> 100 µM (inactive),> 100 µM (inactive),> 100 µM (inactive),> 100 µM (inactive),> 100 µM (inactive)
CCC(c1nc2ccccc2c(=O)n1NC(=O)C(C)(C)C)C1(O)CCCCC1 (stereo unspecified),> 100 µM (inactive),> 100 µM (inactive),> 100 µM (inactive),> 100 µM (inactive),> 100 µM (inactive),> 100 µM (inactive),–,> 100 µM (inactive),> 100 µM (inactive),> 100 µM (inactive),> 100 µM (inactive),> 100 µM (inactive),> 100 µM (inactive),> 100 µM (inactive),> 100 µM (inactive),> 100 µM (inactive),> 100 µM (inactive),99.5 µM (inactive),> 100 µM (inactive),> 100 µM (inactive)
Fc1ccc(C(OCCN2CCN(CCCCl)CC2)c2ccc(F)cc2)cc1,18.8 µM (inactive),17.1 µM (inactive),18.6 µM (inactive),18.4 µM (inactive),21.6 µM (inactive),37.6 µM (inactive),16.8 µM (inactive),21.8 µM (inactive),–,34.8 µM (inactive),41.1 µM (inactive),22.3 µM (inactive),26.5 µM (inactive),27.5 µM (inactive),38.4 µM (inactive),48.6 µM (inactive),22.3 µM (inactive),40.2 µM (inactive),26 µM (inactive),20.8 µM (inactive)
COC(=O)c1sc2c(c1C(=O)OC)/C(=N/C(C)(C)C)S/C2=N\C(C)(C)C,13.4 µM (inactive),18.4 µM (inactive),19 µM (inactive),0.14 µM (active),17.7 µM (inactive),17.8 µM (inactive),19.5 µM (inactive),18.5 µM (inactive),–,19.1 µM (inactive),16.3 µM (inactive),12.2 µM (inactive),19.9 µM (inactive),19.5 µM (inactive),17.3 µM (inactive),25.4 µM (inactive),18.8 µM (inactive),15.6 µM (inactive),19.6 µM (inactive),15.2 µM (inactive)
N/C(=N\O)N/N=C/c1cc(Br)cc(Br)c1O,–,9.48 µM (inactive),2.44 µM (inactive),1.92 µM (inactive),6.21 µM (inactive),7.11 µM (inactive),2.35 µM (inactive),3.32 µM (inactive),2.86 µM (inactive),5.74 µM (inactive),14.9 µM (inactive),1.75 µM (inactive),4.6 µM (inactive),2.37 µM (inactive),8.73 µM (inactive),7.14 µM (inactive),7.06 µM (inactive),0.491 µM (active),0.507 µM (active),2.61 µM (inactive)
Cc1c2c(C(N)=O)nccc2c(C)c2c1c1ccccc1n2Cc1ccccc1,–,33.9 µM (inactive),29.3 µM (inactive),16.4 µM (inactive),37 µM (inactive),14.8 µM (inactive),4.41 µM (inactive),11.6 µM (inactive),5.33 µM (inactive),13 µM (inactive),43.6 µM (inactive),29.2 µM (inactive),9.75 µM (inactive),10.6 µM (inactive),54.5 µM (inactive),22.9 µM (inactive),23.1 µM (inactive),23.3 µM (inactive),16.2 µM (inactive),26.8 µM (inactive)
Cc1ccc([N+](=O)[O-])c2c(NCCCN(C)C)ccnc12,66.4 µM (inactive),21.6 µM (inactive),> 100 µM (inactive),> 100 µM (inactive),39.4 µM (inactive),> 100 µM (inactive),44.2 µM (inactive),23.2 µM (inactive),33.7 µM (inactive),33.6 µM (inactive),> 49 µM (inactive),> 100 µM (inactive),> 100 µM (inactive),98.4 µM (inactive),> 100 µM (inactive),–,28.2 µM (inactive),> 100 µM (inactive),30 µM (inactive),> 100 µM (inactive)

# Source: ChEMBL document CHEMBL1201862, “PubChem BioAssay data set” (2004)
